In patent US10208059B2, “Heterocyclic modulators of HIF activity for treatment of disease” (Board of Regents, University of Texas System, priority 2012, dated 2019) one finds IC50 data, which are given here for 22 compounds.

This test has as its system 293T-HRE-GFP-luc cells. Put plainly: Cell-based reporter assay for IC50 determinations. The conditions noted are these: hypoxia 6 hrs (1% O2), luminescence, read-out: IC50 Classification. In a few lines: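 Cells carrying an HRE-driven GFP-luciferase reporter, seeded at 12,000/well and held overnight, then given 1:3 serial compound dilutions (DMSO, further diluted 1:50 in medium). After 30 min in normoxia, plates held 6 h in hypoxia (1% O2, 37 °C); luciferase luminescence read, IC50 by four-parameter logistic fit.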
A general note: In a reporter assay the amount or activity of a reporter protein is the signal.

Bounds are passed on as bounds.

With `Cc1nc(-c2nc(-c3ccc(OC(F)(F)F)cc3)no2)nn1Cc1ccnc(OCCCO)c1` [Example 141, 3-({4-[(5-methyl-3-{3-[4-(trifluoromethoxy)phenyl]-1,2,4-oxadiazol-5-yl}-1H-1,2,4-triazol-1-yl)methyl]pyridin-2-yl}oxy)propan-1-ol], the IC50 (as a rule, the concentration that gives 50% inhibition) was less than 100 nM. To `COCCCn1ccc(Cn2nc(-c3nc(-c4ccc(OC(F)(F)F)cc4)no3)nc2C)cc1=O` [Example 142, 1-(3-methoxypropyl)-4-[(5-methyl-3-{3-[4-(trifluoromethoxy)phenyl]-1,2,4-oxadiazol-5-yl}-1H-1,2,4-triazol-1-yl)methyl]-1,2-dihydropyridin-2-one] belongs 100 to 1000 nM; to `Cc1nc(-c2nc(-c3ccc(OC(F)(F)F)cc3)no2)nn1Cc1ccnc(OCCN(C)C)c1` [Example 143, dimethyl[2-({4-[(5-methyl-3-{3-[4-(trifluoromethoxy)phenyl]-1,2,4-oxadiazol-5-yl}-1H-1,2,4-triazol-1-yl)methyl]pyridin-2-yl}oxy)ethyl]amine], 100 to 1000 nM. In the case of `Cc1nc(-c2nc(-c3ccc(OC(F)(F)F)cc3)no2)nn1Cc1cccc(OCCCS(C)(=O)=O)c1` [Example 144, 5-(1-([3-(3-methanesulfonylpropoxy)phenyl]methyl)-5-methyl-1H-1,2,4-triazol-3-yl)-3-[4-(trifluoromethoxy)phenyl]-1,2,4-oxadiazole] it was less than 100 nM; in that of `Cc1nc(-c2nc(-c3ccc(OC(F)(F)F)cc3)no2)nn1Cc1cccc(N2CCNC(=O)C2)c1` [Example 145, 4-{3-[(5-methyl-3-{3-[4-(trifluoromethoxy)phenyl]-1,2,4-oxadiazol-5-yl}-1H-1,2,4-triazol-1-yl)methyl]phenyl]piperazin-2-one], less than 100 nM; in that of `Cc1nc(-c2nc(-c3ccc(OC(F)(F)F)cc3)no2)nn1Cc1ccnc(N2CCC(S(C)(=O)=O)CC2)c1` [Example 146, 2-(4-methanesulfonylpiperidin-1-yl)-4-[(5-methyl-3-{3-[4-(trifluoromethoxy)phenyl]-1,2,4-oxadiazol-5-yl}-1H-1,2,4-triazol-1-yl)methyl]pyridine], less than 100 nM. In the case of `Cc1nc(-c2nc(-c3ccc(OC(F)(F)F)cc3)no2)nn1Cc1cccc(N2CCCS2(=O)=O)c1` [Example 147, 2-(3-((5-methyl-3-(3-(4-(trifluoromethoxy)phenyl)-1,2,4-oxadiazol-5-yl)-1H-1,2,4-triazol-1-yl)methyl)phenyl)isothiazolidine 1,1-dioxide] it was less than 100 nM.

Regarding `Cc1nc(-c2nc(-c3ccc(OC(F)(F)F)cc3)cs2)nn1Cc1cccc(N2CCN(C)CC2)c1` [Example 148, 1-methyl-4-{3-[(5-methyl-3-{4-[4-(trifluoromethoxy)phenyl]-1,3-thiazol-2-yl}-1H-1,2,4-triazol-1-yl)methyl]phenyl}piperazine], the IC50 is less than 100 nM. `Cc1ccc(Cn2nc(-c3nc(-c4ccc(OC(F)(F)F)cc4)cs3)nc2C)cc1` [Example 149, 5-methyl-1-[(4-methylphenyl)methyl]-3-{4-[4-(trifluoromethoxy)phenyl]-1,3-thiazol-2-yl}-1H-1,2,4-triazole]: the IC50 was less than 100 nM. To `COC(=O)c1cccc(Cn2nc(-c3nc(-c4ccc(OC(F)(F)F)cc4)cs3)nc2C)c1` [Example 150, methyl 3-[(5-methyl-3-{4-[4-(trifluoromethoxy)phenyl]-1,3-thiazol-2-yl}-1H-1,2,4-triazol-1-yl)methyl]benzoate] belongs 100 to 1000 nM; to `Cc1nc(-c2nc(-c3ccc(OC(F)(F)F)cc3)cs2)nn1Cc1cccc(O)c1` [Example 151, 3-[(5-methyl-3-{4-[4-(trifluoromethoxy)phenyl]-1,3-thiazol-2-yl}-1H-1,2,4-triazol-1-yl)methyl]phenol], 100 to 1000 nM; to `Cc1nc(-c2ncc(-c3ccc(OC(F)(F)F)cc3)o2)nn1Cc1cccc(N2CCN(C)CC2)c1` [Example 152, 1-methyl-4-{3-[(5-methyl-3-{5-[4-(trifluoromethoxy)phenyl]-1,3-oxazol-2-yl}-1H-1,2,4-triazol-1-yl)methyl]phenyl}piperazine], less than 100 nM. To `Cc1nc(-c2ncc(-c3ccc(OC(F)(F)F)cc3)o2)nn1Cc1cccc(S(=O)(=O)N2CCOCC2)c1` [Example 153, 4-{3-[(5-methyl-3-{5-[4-(trifluoromethoxy)phenyl]-1,3-oxazol-2-yl}-1H-1,2,4-triazol-1-yl)methyl]benzenesulfonyl}morpholine] belongs 100 to 1000 nM; to `Cc1ccc(Cn2nc(-c3ncc(-c4ccc(OC(F)(F)F)cc4)o3)nc2C)cc1` [Example 154, 5-methyl-1-[(4-methylphenyl)methyl]-3-{5-[4-(trifluoromethoxy)phenyl]-1,3-oxazol-2-yl}-1H-1,2,4-triazole], 100 to 1000 nM; to `COC(=O)c1cccc(Cn2nc(-c3ncc(-c4ccc(OC(F)(F)F)cc4)o3)nc2C)c1` [Example 155, methyl 3-[(5-methyl-3-{5-[4-(trifluoromethoxy)phenyl]-1,3-oxazol-2-yl}-1H-1,2,4-triazol-1-yl)methyl]benzoate], 100 to 1000 nM. In the case of `Cc1nc(-c2ncc(-c3ccc(OC(F)(F)F)cc3)o2)nn1Cc1cccc(O)c1` [Example 156, 3-[(5-methyl-3-{5-[4-(trifluoromethoxy)phenyl]-1,3-oxazol-2-yl}-1H-1,2,4-triazol-1-yl)methyl]phenol] it was 1000 to 10000 nM.

Take `Cc1nc(-c2ncc(-c3ccc(OC(F)(F)F)cc3)o2)nn1Cc1cccc(C(=O)N(C)C)c1` [Example 157, N,N-dimethyl-3-[(5-methyl-3-{5-[4-(trifluoromethoxy)phenyl]-1,3-oxazol-2-yl}-1H-1,2,4-triazol-1-yl)methyl]benzamide]: the 50% inhibitory concentration (IC50) lay within 100 to 1000 nM. Consider `COCCOc1cccc(Cn2nc(-c3ncc(-c4ccc(OC(F)(F)F)cc4)o3)nc2C)c1` [Example 158, l-{[3-(2-methoxyethoxy)phenyl]methyl}-5-methyl-3-{5-[4-(trifluoromethoxy)phenyl]-1,3-oxazol-2-yl}-1H-1,2,4-triazole], for which the half-inhibitory concentration (IC50) was less than 100 nM.

On to `Cc1nc(-c2ncc(-c3ccc(OC(F)(F)F)cc3)o2)nn1Cc1cccc(S(C)(=O)=O)c1` [Example 159, 1-[(3-methanesulfonylphenyl)methyl]-5-methyl-3-{5-[4-(trifluoromethoxy)phenyl]-1,3-oxazol-2-yl}-1H-1,2,4-triazole], for which the 50% inhibitory concentration (IC50) was 100 to 1000 nM. Regarding `Cc1nc(-c2cc(-c3ccc(OC(F)(F)F)cc3)no2)nn1Cc1cccc(N2CCN(C)CC2)c1` [Example 160, 1-methyl-4-{3-[(5-methyl-3-{3-[4-(trifluoromethoxy)phenyl]-1,2-oxazol-5-yl}-1H-1,2,4-triazol-1-yl)methyl]phenyl}piperazine], the IC50 is less than 100 nM.

Turning to `Cc1nc(-c2cc(-c3ccc(OC(F)(F)F)cc3)no2)nn1Cc1ccnc(N2CCN(C)CC2)c1` [Example 161, 1-methyl-4-{4-[(5-methyl-3-{3-[4-(trifluoromethoxy)phenyl]-1,2-oxazol-5-yl}-1H-1,2,4-triazol-1-yl)methyl]pyridin-2-yl}piperazine], the IC50 was less than 100 nM. In the case of `Cc1nc(-c2cc(-c3ccc(OC(F)(F)F)cc3)on2)nn1Cc1cccc(N2CCN(C)CC2)c1` [Example 162, 1-methyl-4-{3-[(5-methyl-3-{5-[4-(trifluoromethoxy)phenyl]-1,2-oxazol-3-yl}-1H-1,2,4-triazol-1-yl)methyl]phenyl}piperazine] it was less than 100 nM.
